Experimental data reported in patent EP0726944B1, “GL[…] NON-GLYCOSYLATED BACTERICIDAL/PE[…], AND METHODS FOR PRODUCING SAME” (INCYTE PHARMACEUTICALS, INC., priority 1993, dated 1995).
Where “and” joins values, the source holds several entries; their conditions need not be identical. Equal values may be shown once.

Columns and labels:
mice = assay: Intranasal LPS challenge, TNFα in broncheoalveolar lavage fluid; assay type: in vivo; design: TNFα level in Broncheoalveolar Lavage Fluid, individual mouse: unit not given here; details: Polymyxin B 1.0µg (782 pmol) intranasal 20 minutes before LPS, BAL 1 hour after challenge
Procedure: Normal anesthetized mice were challenged by the intranasal route with 10 ng/ml E. coli 0111:B4 LPS (results in Table 10). Twenty minutes before challenge, anesthetized mice were treated by the intranasal route with 50µl saline, BPI Protein or polymyxin B solution. At one hour after LPS challenge, mice were re-anesthetized, and 0.7 ml of saline containing 1% human serum albumin was added to the lungs via the trachea. The lungs were gently kneaded. A 0.5 ml volume broncheoalveolar lavage (BAL) fluid was aspirated, cells were pelleted by centrifugation, and the BAL sample was stored at -70°C. The TNFα level in the BAL fluid was determined by measuring cytotoxicity towards WEHI clone 13 mouse fibrosarcoma cells and is summarized in Table 10. Human rTNFα (Chiron) was used as the standard.

Human Monocytes [1] = assay: LPS-induced TNF production by adherent peripheral blood mononuclear cells, ELISA; assay type: cell-based; details: Table 8; 1000 ng/ml Polymyxin B; 0.1 % w/v killed S. aureus
human neutrophils = assay: Neutrophil stimulation by LPS: CR1/CR3 upregulation, flow cytometry; assay type: cell-based; details: stoichiometric calculation
Procedure: Venous blood was drawn from healthy volunteer donors into acid citrate dextrose anticoagulant and immediately placed on ice. Five parts blood were mixed with 1 part cold Macrodex, and allowed to settle for 1.5 - 2 hours at 4°C. Leukocyte-rich plasma was washed 1X in cold HBSS, then resuspended in HBSS and layered over Ficoll-Paque. If significant erythrocyte contamination was present, the granulocyte pellet was subjected to hypotonic lysis. The cells were washed 2X in HBSS and resuspended in HBSS + 2% autologous plasma to give a final granulocyte concentration of 1 X 10^6/ml in the incubation mixture.
Isolated neutrophils were kept on ice until incubated with and without stimuli at 37°C for 30 minutes. Following the incubation, cells were washed in a large volume of cold PBS + 0.05% Na Azide + 2% autologous plasma. […] Following a 30 minute incubation at 0°C and 2 more washes, the cells were analyzed by flow cytometry on a Becton Dickinson FACStar flow cytometer (Becton Dickinson, Mountain View, CA). […]
Human neutrophils may be stimulated both in vivo and in vitro by lipopolysaccharide. […] Using the Fluorescence Activated Cell Sorter (FACS), fluorescence intensity of freshly isolated human neutrophils was measured following stimulation with increasing doses of 0111:B4 LPS (data not shown). […]

Human Monocytes [2] = assay: LPS-induced TNF production by adherent peripheral blood mononuclear cells, ELISA; assay type: cell-based
Procedure: Human peripheral blood mononuclear cells were isolated on Ficoll-Paque (Pharmacia) gradients, washed 2X in pyrogen-free HBSS (Hazelton), and resuspended at 5 X 10^6/ml in RPMI (Gibco) media without serum. Two hundred µl of this cell suspension was incubated in each well of flat-bottom 96-well tissue culture dishes (Costar) for 2 hours at 37°C. Nonadherent cells were removed by washing 2X with RPMI + 10% autologous heat inactivated serum. Adherent mononuclear cells were stimulated with E. coli 0111:B4 LPS which had been preincubated for 30 minutes at 37°C with buffer, BPI Protein or polymyxin B (Gibco; 7900 U/ml). Supernatants were harvested four hours after LPS mixtures were added. Secretion of TNFα was quantitated by ELISA (Endogen) (results at Table 9).
BPI Protein produced in soluble form at low temperature in E. coli and purified as described above in purification process A was tested for inhibition of endotoxin-mediated TNF induction by human adherent mononuclear cells. Blood collected in acid citrate dextrose containing vacutainer tubes (Becton Dickinson, Rutherford, NJ) was diluted in Hank's balanced salt solution (HBSS) minus Ca^+2 and Mg^+2. Mononuclear cells were separated using Ficol-Paque (Pharmacia Inc., Piscataway, N.J.), collected and washed three times in HBSS, and the proportion of monocytes was estimated by microscopic examination. Cells were brought up to an appropriate volume of RPMI 1640 with glutamine and antibiotics and without serum to give approximately 1 x 10^6 monocytes/ml. Cells were plated into 96 11 flat bottom tissue culture plates (Costar, Cambridge, MA), 200 µl/well, and incubated for two hours at 37°C in a humidified incubator with […]. Cells were then washed three times in warm RPMI 1640 without serum. After the last wash was aspirated, 200 µl/well RPMI 1640 with 10% autologous heat-inactivated serum was added. To each well was then added the 22µl of 10X solution of E. coli endotoxin preincubated in buffer, polymyxin B, or BPI Protein. Cells were incubated with the endotoxin mixture for four hours at 37°C, then the supernatants were collected and assayed for TNFα antigen by ELISA (Endogen, Inc., Boston, MA) (Figure 12) .

[3] = assay type: binding; details: data not shown
Procedure: BPI Protein binds to LPS (data not shown). In these experiments, 4 µg of LPS/well was immobilized on 96 well plastic plates, then incubated with varying concentrations of BPI Protein, and developed with anti-BPI Protein polyclonal antisera. […]

Substance: Polymyxin B
- TNFα level in Broncheoalveolar Lavage Fluid, Mean ± SD (mice): 253 ± 251
- TNFα level in Broncheoalveolar Lavage Fluid, individual mouse (mice; mice 1-5): 74 and 50 and 132 and 370 and 640
- TNF Produced in Response to S. aureus Preincubated with substance (Human Monocytes [1]): 1685 ± 121 pg/mL
- calculated amount of PMB required to inhibit 10 ng/ml of smooth LPS (human neutrophils): approximately 0.67 nM
- TNF Produced in Response to LPS Preincubated with substance (Human Monocytes [2]; Table 5, 100 ng/ml, LPS 0 ng/ml): 0 pg/mL
- TNF Produced in Response to LPS Preincubated with substance (Human Monocytes [2]; Table 5, 100 ng/ml, LPS 0.1 ng/ml): 0 pg/mL
- TNF Produced in Response to LPS Preincubated with substance (Human Monocytes [2]; Table 5, 100 ng/ml, LPS 1 ng/ml): 96 pg/mL
- TNF Produced in Response to LPS Preincubated with substance (Human Monocytes [2]; Table 5, 100 ng/ml, LPS 10 ng/ml): 2154 pg/mL
- TNF Produced in Response to LPS Preincubated with substance (Human Monocytes [2]; Table 5, 500 ng/ml, LPS 0 ng/ml): 0 pg/mL
- TNF Produced in Response to LPS Preincubated with substance (Human Monocytes [2]; Table 5, 500 ng/ml, LPS 0.1 ng/ml): 0 pg/mL
- TNF Produced in Response to LPS Preincubated with substance (Human Monocytes [2]; Table 5, 500 ng/ml, LPS 1 ng/ml): 0 pg/mL
- TNF Produced in Response to LPS Preincubated with substance (Human Monocytes [2]; Table 5, 500 ng/ml, LPS 10 ng/ml): 1490 pg/mL
- TNF Produced in Response to LPS Preincubated with substance (Human Monocytes [2]; Table 7, 100 ng/ml PMB, LPS 0 ng/ml): 0 pg/mL
- TNF Produced in Response to LPS Preincubated with substance (Human Monocytes [2]; Table 7, 100 ng/ml PMB, LPS 0.1 ng/ml): 79 pg/mL
- TNF Produced in Response to LPS Preincubated with substance (Human Monocytes [2]; Table 7, 100 ng/ml PMB, LPS 1 ng/ml): 1207 pg/mL
- TNF Produced in Response to LPS Preincubated with substance (Human Monocytes [2]; Table 7, 100 ng/ml PMB, LPS 10 ng/ml): 1270 pg/mL
- TNF Produced in Response to S. aureus Preincubated with substance (Human Monocytes [2]; Table 8, 100 ng/ml Polymyxin B, 0.1 % w/v killed S. aureus): 1541 ± 397 pg/mL
- TNF Produced in Response to LPS Preincubated with substance (Human Monocytes [2]; Table 8, 100 ng/ml Polymyxin B, LPS 10 (unit not given)): 601 ± 257 pg/mL
- TNF Produced in Response to LPS Preincubated with substance (Human Monocytes [2]; Table 8, 100 ng/ml Polymyxin B, LPS 100 (unit not given)): 1140 ± 73 pg/mL
- TNF Produced in Response to LPS Preincubated with substance (Human Monocytes [2]; Table 8, 100 ng/ml Polymyxin B, LPS 1000 (unit not given)): 1016 ± 20 pg/mL
- TNF Produced in Response to LPS Preincubated with substance (Human Monocytes [2]; Table 8, 1000 ng/ml Polymyxin B, LPS 10 (unit not given)): 333 ± 18 pg/mL
- TNF Produced in Response to LPS Preincubated with substance (Human Monocytes [2]; Table 8, 1000 ng/ml Polymyxin B, LPS 100 (unit not given)): 769 ± 101 pg/mL
- TNF Produced in Response to LPS Preincubated with substance (Human Monocytes [2]; Table 8, 1000 ng/ml Polymyxin B, LPS 1000 (unit not given)): 844 ± 144 pg/mL
- inhibition of BPI Protein binding to LPS [3]: inhibited
